{
  "source": "patent US20120201749A1",
  "about": "“NP-1 Antagonists and Their Therapeutic Use” (priority 2009, published 2012)",
  "molecular_target": "NP-1 (Homo sapiens, UniProt O14786)",
  "sequence (O14786 22-923)": "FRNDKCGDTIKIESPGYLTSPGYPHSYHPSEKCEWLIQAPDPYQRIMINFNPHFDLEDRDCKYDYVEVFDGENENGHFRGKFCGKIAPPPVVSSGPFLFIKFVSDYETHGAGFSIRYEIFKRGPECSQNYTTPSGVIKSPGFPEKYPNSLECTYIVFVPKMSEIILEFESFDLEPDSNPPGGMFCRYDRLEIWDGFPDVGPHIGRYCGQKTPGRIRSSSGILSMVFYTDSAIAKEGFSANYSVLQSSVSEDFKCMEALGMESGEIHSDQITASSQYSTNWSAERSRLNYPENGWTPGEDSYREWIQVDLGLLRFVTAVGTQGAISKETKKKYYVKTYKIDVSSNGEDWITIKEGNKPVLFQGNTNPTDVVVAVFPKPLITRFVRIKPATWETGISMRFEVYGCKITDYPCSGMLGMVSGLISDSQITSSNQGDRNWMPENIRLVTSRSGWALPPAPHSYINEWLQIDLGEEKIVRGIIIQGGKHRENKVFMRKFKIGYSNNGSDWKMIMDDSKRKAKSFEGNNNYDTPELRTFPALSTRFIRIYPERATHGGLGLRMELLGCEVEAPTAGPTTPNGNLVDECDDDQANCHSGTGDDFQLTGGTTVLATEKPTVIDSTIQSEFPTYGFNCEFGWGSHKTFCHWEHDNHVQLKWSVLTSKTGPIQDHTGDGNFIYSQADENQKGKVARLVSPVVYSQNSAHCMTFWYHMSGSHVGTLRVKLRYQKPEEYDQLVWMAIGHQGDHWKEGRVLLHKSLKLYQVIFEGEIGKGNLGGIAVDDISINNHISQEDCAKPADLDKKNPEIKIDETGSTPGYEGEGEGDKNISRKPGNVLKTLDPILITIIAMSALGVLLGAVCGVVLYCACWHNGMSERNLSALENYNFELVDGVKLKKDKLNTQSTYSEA",
  "test": "Biotinylated-VEGF-A165 (bt-VEGF-A165) binding to NP-1",
  "conditions": "for inhibition at 3 µM: read-out: Screen (% inhibition at 3 μM); for inhibition at 30 µM: read-out: Screen (% inhibition at 30 μM)",
  "protocol": "Human prostate carcinoma DU145 cells were cultured in growth medium (RPMI 1640 containing 10% FBS and L-glutamine). DU145 cells were seeded at the density of 2×10^4 cells per well (96-well plates) in 0.1 ml growth medium and transfected with adenovirus vectors containing the full-length open-reading frame of human NP-1. The Ad.NP-1-transfected cells grew for 2 days prior to a binding assay.\nConfluent Ad.NP-1-transfected cells in 96-well plates were washed twice with phosphate-buffered saline (PBS). The various concentrations of compounds diluted in binding medium (Dulbecco's modified Eagle's medium, 25 mM HEPES pH 7.3 containing 0.1% BSA) were added, followed by addition of 2 nM of bt-VEGF-A165. After 2 h of incubation at room temperature, the medium was aspirated and washed three times with PBS. The bound bt-VEGF-A165 to NP-1 was detected by streptavidin-horseradish peroxidase conjugates and the enzyme substrate, and measured using a Tecan Genios plate reader at A450 nm with a reference wavelength at A595 nm. Non-specific binding was determined in the presence of 100-fold excess unlabelled VEGF-A165.\nThe 96-well plates were pre-coated with NP1 protein at 3 μg/ml overnight at 4° C. On the following day, the plates were treated with blocking buffer (PBS containing 1% BSA) and washed three times with wash buffer (PBS containing 0.1% Tween-20). The various concentrations of compounds diluted in PBS containing 1% DMSO were added, followed by addition of 0.25 nM of bt-VEGF-A165. After 2 h of incubation at room temperature, the plates were washed three times with wash buffer. The bound bt-VEGF-A165 to NP-1 was detected by streptavidin-horseradish peroxidase conjugates and the enzyme substrate, and measured using a Tecan Genios plate reader at A450 nm with a reference wavelength at A595 nm. Nonspecific binding was determined in the absence of NP-1 coated wells of the plates.",
  "note": "pIC50: −log10 of the molar value.",
  "data": [
    {"smiles": "Cn1cncc1CNCc1ccccc1-c1cc2c(c(S(=O)(=O)Nc3ccsc3C(=O)N[C@@H](CCCNC(=N)N)C(=O)O)c1)OCC2", "note": "[Compound 23, (S)-5-Guanidino-2-({3-[5-(2-{[(3-methyl-3H-imidazol-4-ylmethyl)-amino]-methyl}-phenyl)-2,3-dihydro-benzofuran-7-sulfonylamino]-thiophene-2-carbonyl}-amino)-pentanoic acid]", "values": [
      {"measurement": "inhibition at 3 µM", "setting": "3 μM compound", "value": 58, "unit": "%"},
      {"measurement": "inhibition at 30 µM", "setting": "30 μM compound", "value": 97, "unit": "%"}
    ]},
    {"smiles": "N=C(N)NCCC[C@H](NC(=O)c1sccc1NS(=O)(=O)c1cc(-c2cccc(CNCc3cccnc3)c2)cc2c1OCC2)C(=O)O", "note": "[Compound 12, (S)-5-Guanidino-2-({3-[5-(3-{[(pyridin-3-ylmethyl)-amino]-methyl}-phenyl)-2,3-dihydro-benzofuran-7-sulfonyl-amino]-thiophene-2-carbonyl}-amino)-pentanoic acid]", "values": [
      {"measurement": "pIC50", "value": 5.92},
      {"measurement": "inhibition at 30 µM", "setting": "30 μM compound", "value": 96, "unit": "%"}
    ]},
    {"smiles": "N=C(N)NCCC[C@H](NC(=O)c1sccc1NS(=O)(=O)c1cc(-c2cccc(CNCCO)c2)cc2c1OCC2)C(=O)O", "note": "[Compound 35, (S)-5-Guanidino-2-{[3-(5-{3-[(2-hydroxy-ethylamino)-methyl]-phenyl}-2,3-dihydro-benzofuran-7-sulfonylamino)-thiophene-2-carbonyl]-amino}-pentanoic acid]", "values": [
      {"measurement": "inhibition at 3 µM", "setting": "3 μM compound", "value": 71, "unit": "%"},
      {"measurement": "inhibition at 30 µM", "setting": "30 μM compound", "value": 96, "unit": "%"}
    ]},
    {"smiles": "N=C(N)NCCC[C@H](NC(=O)c1sccc1NS(=O)(=O)c1cc(-c2cccc(CNCc3ncc[nH]3)c2)cc2c1OCC2)C(=O)O", "note": "[Compound 37]", "values": [
      {"measurement": "pIC50", "value": 6.20},
      {"measurement": "inhibition at 3 µM", "setting": "3 μM compound", "value": 68, "unit": "%"},
      {"measurement": "inhibition at 30 µM", "setting": "30 μM compound", "value": 90, "unit": "%"}
    ]},
    {"smiles": "N=C(N)NCCC[C@H](NC(=O)c1sccc1NS(=O)(=O)c1cc(-c2ccccc2CNCc2ncc[nH]2)cc2c1OCC2)C(=O)O", "note": "[Compound 24, (S)-5-Guanidino-2-({3-[5-(2-{[(1H-imidazol-2-ylmethyl)-amino]-methyl}-phenyl)-2,3-dihydro-benzofuran-7-sulfonylamino]-thiophene-2-carbonyl}-amino)-pentanoic acid]", "values": [
      {"measurement": "inhibition at 3 µM", "setting": "3 μM compound", "value": 67, "unit": "%"},
      {"measurement": "inhibition at 30 µM", "setting": "30 μM compound", "value": 100, "unit": "%"}
    ]},
    {"smiles": "N=C(N)NCCC[C@H](NC(=O)c1sccc1NS(=O)(=O)c1cccc(NCc2csc(C3CCNCC3)n2)c1)C(=O)O", "note": "[Compound 56, (S)-5-guanidino-2-[(3-{3-[(2-piperidin-4-yl-thiazol-4-ylmethyl)-amino]-benzenesulfonylamino}-thiophene-2-carbonyl)-amino]-pentanoic acid]", "values": [
      {"measurement": "inhibition at 3 µM", "setting": "3 μM compound", "value": 57, "unit": "%"},
      {"measurement": "inhibition at 30 µM", "setting": "30 μM compound", "value": 89, "unit": "%"}
    ]},
    {"smiles": "N=C(N)NCCC[C@H](NC(=O)c1sccc1NS(=O)(=O)c1cccc(NCc2csc(N3CCN(c4cnccn4)CC3)n2)c1)C(=O)O", "note": "[Compound 74]", "values": [
      {"measurement": "inhibition at 3 µM", "setting": "3 μM compound", "value": 55, "unit": "%"}
    ]},
    {"smiles": "N=C(N)NCCC[C@H](NC(=O)c1sccc1NS(=O)(=O)c1cc(-c2ccccc2CNCc2ccncc2)cc2c1OCC2)C(=O)O", "note": "[Compound 19, (S)-5-Guanidino-2-({3-[5-(2-{[(pyridin-4-ylmethyl)-amino]-methyl}-phenyl)-2,3-dihydro-benzofuran-7-sulfonylamino]-thiophene-2-carbonyl}-amino)-pentanoic acid]", "values": [
      {"measurement": "inhibition at 3 µM", "setting": "3 μM compound", "value": 56, "unit": "%"}
    ]},
    {"smiles": "N=C(N)NCCC[C@H](NC(=O)c1sccc1NS(=O)(=O)c1cccc(NCc2csc(N3CCN(CCO)CC3)n2)c1)C(=O)O", "note": "[Compound 77, (S)-5-Guanidino-2-({3-[3-({2-[4-(2-hydroxy-ethyl)-piperazin-1-yl]-thiazol-4-ylmethyl}-amino)-benzenesulfonylamino]-thiophene-2-carbonyl}-amino)-pentanoic acid]", "values": [
      {"measurement": "pIC50", "value": 5.43},
      {"measurement": "inhibition at 3 µM", "setting": "3 μM compound", "value": 47, "unit": "%"}
    ]},
    {"smiles": "N=C(N)NCCC[C@H](NC(=O)c1sccc1NS(=O)(=O)c1cc(-c2ccccc2CNCCc2cn[nH]c2)cc2c1OCC2)C(=O)O", "note": "[Compound 47, (S)-5-Guanidino-2-({3-[5-(2-{[2-(1H-pyrazol-4-yl)-ethylamino]-methyl}-phenyl)-2,3-dihydro-benzofuran-7-sulfonylamino]-thiophene-2-carbonyl}-amino)-pentanoic acid]", "values": [
      {"measurement": "pIC50", "value": 6.89},
      {"measurement": "inhibition at 3 µM", "setting": "3 μM compound", "value": 86, "unit": "%"}
    ]},
    {"smiles": "N=C(N)NCCC[C@H](NC(=O)c1sccc1NS(=O)(=O)c1cc(-c2cccc(CN3CCN(c4cccnc4)CC3)c2)cc2c1OCC2)C(=O)O", "note": "[Compound 13, (S)-5-Guanidino-2-[(3-{5-[3-(4-pyridin-3-yl-piperazin-1-ylmethyl)-phenyl]-2,3-dihydro-benzofuran-7-sulfonylamino}-thiophene-2-carbonyl)-amino]-pentanoic acid]", "values": [
      {"measurement": "pIC50", "value": 6.23},
      {"measurement": "inhibition at 30 µM", "setting": "30 μM compound", "value": 100, "unit": "%"}
    ]},
    {"smiles": "Cc1ccnc(NCCNCc2cccc(-c3cc4c(c(S(=O)(=O)Nc5ccsc5C(=O)N[C@@H](CCCNC(=N)N)C(=O)O)c3)OCC4)c2)c1", "note": "[Compound 45, (S)-5-Guanidino-2-({3-[5-(3-{[2-(4-methyl-pyridin-2-ylamino)-ethylamino]-methyl}-phenyl)-2,3-dihydro-benzofuran-7-sulfonylamino]-thiophene-2-carbonyl}-amino)-pentanoic acid]", "values": [
      {"measurement": "inhibition at 3 µM", "setting": "3 μM compound", "value": 81, "unit": "%"}
    ]},
    {"smiles": "N=C(N)NCCC[C@H](NC(=O)c1sccc1NS(=O)(=O)c1cc(-c2cccc(CN3CCC(N4CCOCC4)CC3)c2)cc2c1OCC2)C(=O)O", "note": "[Compound 38, (S)-5-Guanidino-2-[(3-{5-[3-(4-morpholin-4-yl-piperidin-1-ylmethyl)-phenyl]-2,3-dihydro-benzofuran-7-sulfonylamino}-thiophene-2-carbonyl)-amino]-pentanoic acid]", "values": [
      {"measurement": "pIC50", "value": 6.53},
      {"measurement": "Screen (% inhibition at 3 μM)", "setting": "3 μM compound, 3 µM", "value": 68, "unit": "%"},
      {"measurement": "Screen (% inhibition at 30 μM)", "setting": "30 μM compound, 30 µM", "value": 93, "unit": "%"}
    ]},
    {"smiles": "N=C(N)NCCC[C@H](NC(=O)c1sccc1NS(=O)(=O)c1cc(-c2cccc(CN3CCNCC3)c2)cc2c1OCC2)C(=O)O", "note": "[Compound 33, (S)-5-Guanidino-2-({3-[5-(3-piperazin-1-ylmethyl-phenyl)-2,3-dihydro-benzofuran-7-sulfonylamino]-thiophene-2-carbonyl}-amino)-pentanoic acid]", "values": [
      {"measurement": "pIC50", "value": 6.44},
      {"measurement": "inhibition at 3 µM", "setting": "3 μM compound", "value": 81, "unit": "%"},
      {"measurement": "inhibition at 30 µM", "setting": "30 μM compound", "value": 100, "unit": "%"}
    ]},
    {"smiles": "N=C(N)NCCC[C@H](NC(=O)c1sccc1NS(=O)(=O)c1cc(-c2cccc(CN3CCN(Cc4cccnc4)CC3)c2)cc2c1OCC2)C(=O)O", "note": "[Compound 11, (S)-5-Guanidino-2-[(3-{5-[3-(4-pyridin-3-ylmethyl-piperazin-1-ylmethyl)-phenyl]-2,3-dihydro-benzofuran-7-sulfonylamino}-thiophene-2-carbonyl)-amino]-pentanoic acid]", "values": [
      {"measurement": "pIC50", "value": 5.82},
      {"measurement": "inhibition at 30 µM", "setting": "30 μM compound", "value": 98, "unit": "%"}
    ]},
    {"smiles": "N=C(N)NCCC[C@H](NC(=O)c1sccc1NS(=O)(=O)c1cc(-c2cccc(CN3CCN(CCO)CC3)c2)cc2c1OCC2)C(=O)O", "note": "[Compound 55, (S)-5-Guanidino-2-{[3-(5-{3-[4-(2-hydroxy-ethyl)-piperazin-1-ylmethyl]-phenyl}-2,3-dihydro-benzofuran-7-sulfonylamino)-thiophene-2-carbonyl]-amino}-pentanoic acid]", "values": [
      {"measurement": "pIC50", "value": 6.28},
      {"measurement": "inhibition at 3 µM", "setting": "3 μM compound", "value": 71, "unit": "%"}
    ]},
    {"smiles": "N=C(N)NCCC[C@H](NC(=O)c1sccc1NS(=O)(=O)c1cc(-c2cccc(CNCc3ccc(N)nc3)c2)cc2c1OCC2)C(=O)O", "note": "[Compound 40, (S)-2-({3-[5-(3-{[(6-Amino-pyridin-3-ylmethyl)-amino]-methyl}-phenyl)-2,3-dihydro-benzofuran-7sulfonylamino]-thiophene-2-carbonyl}-amino)-5-guanidino-pentanoic acid]", "values": [
      {"measurement": "inhibition at 3 µM", "setting": "3 μM compound", "value": 56, "unit": "%"}
    ]},
    {"smiles": "Cn1cncc1CNCc1cccc(-c2cc3c(c(S(=O)(=O)Nc4ccsc4C(=O)N[C@@H](CCCNC(=N)N)C(=O)O)c2)OCC3)c1", "note": "[Compound 36, (S)-5-Guranidino-2-({3-[5-(3-{[(3-methyl-3H-imidazol-4-ylmethyl)-amino]-methyl}-phenyl)-2,3-dihydro-benzofuran-7-sulfonylamino]-thiophene-2-carbonyl}-amino)-pentanoic acid]", "values": [
      {"measurement": "pIC50", "value": 6.49},
      {"measurement": "inhibition at 3 µM", "setting": "3 μM compound", "value": 84, "unit": "%"},
      {"measurement": "inhibition at 30 µM", "setting": "30 μM compound", "value": 98, "unit": "%"}
    ]},
    {"smiles": "Cc1ccc(NCCCNCc2ccccc2-c2cc3c(c(S(=O)(=O)Nc4ccsc4C(=O)N[C@@H](CCCNC(=N)N)C(=O)O)c2)OCC3)nc1", "note": "[Compound 50, (S)-5-Guanidino-2-({3-[5-(2-{[3-(5-methyl-pyridin-2-ylamino)-propylamino]-methyl}-phenyl)-2,3-dihydro-benzofuran-7-sulfonylamino]-thiophene-2-carbonyl}-amino)-pentanoic acid]", "values": [
      {"measurement": "inhibition at 3 µM", "setting": "3 μM compound", "value": 82, "unit": "%"}
    ]},
    {"smiles": "N=C(N)NCCC[C@H](NC(=O)c1sccc1NS(=O)(=O)c1cc(-c2ccccc2CN2CCN(c3ccccn3)CC2)cc2c1OCC2)C(=O)O", "note": "[Compound 14, (S)-5-Guanidino-2-[(3-{5-[2-(4-pyridin-2-yl-piperazin-1-ylmethyl)-phenyl]-2,3-dihydro-benzofuran-7-sulfonylamino}-thiophene-2-carbonyl)-amino]-pentanoic acid]", "values": [
      {"measurement": "inhibition at 3 µM", "setting": "3 μM compound", "value": 67, "unit": "%"},
      {"measurement": "inhibition at 30 µM", "setting": "30 μM compound", "value": 100, "unit": "%"}
    ]}
  ]
}
